Square brackets hold non-standard residues; d marks the D form. Ends that are not written are not given here.
Columns and labels:
CF-1 mice = assay: phenylbenzoquinone induced writhing test (modified Siegmund procedure); assay type: in vivo
Protocol: Biol. Med. 95 729-731 (1957), in which groups of ten CF-1 mice were administered, subcutaneously, known dosages of N(Me)Tyr--D--Asn--Gly--N(Me)Phe--D--Asn--NH2, as a compound representative of the group of compounds of this invention. Five minutes later, each animal received, i.p., 0.25 ml. of a 0.02 percent phenylbenzoquinone solution. The animals were observed over a ten minute period following the phenylbenzoquinone injection for the presence of writhing. […] The dose-response analysis was then performed according to Litchfiled et al., J. Pharmacol. exp. Therap. 96 99--113(1949). The ED50 for the test compound was 1.0 mg/kg (0.62-1.6) at 30 minutes by subcutaneous administration.

[1] = intracerebral (icv) administration; cited from earlier work
[2] = intravenous administration; more potent than morphine; cited from earlier work

CC(=O)O.CN[C@@H](Cc1ccc(O)cc1)C(=O)N[C@H](CC(N)=O)C(=O)NCC(=O)N(C)[C@@H](Cc1ccccc1)C(=O)N[C@H](CC(N)=O)C(N)=O [N-Methyl-L-tyrosyl-D-asparaginyl-glycyl-N-methyl-L-phenylalanyl-D-asparaginyl amide acetate]
animals in which analgesia was observed (CF-1 mice; dose of 10 mg/kg, same procedure, for a period of forty five minutes): 100% | ED50 (analgesia, absence of writhing) (CF-1 mice; subcutaneous administration, at 30 minutes, limits (0.62-1.6), groups of ten CF-1 mice): 1.0 mg/kg

II: pentapeptide Tyr--Gly--Gly--Phe--X where X=Met, isolated by Hughes et al. (YGGFM; printed: Tyr--Gly--Gly--Phe--Met)
analgesic activity after icv administration [1]: analgesic activity only after intracerebral (icv) administration

Tyr--D--Ala--Gly--Phe--Met--NH2 [III]
analgesic activity after icv administration [1]: potent and prolonged analgesia

Y[dM]GFP-NH2 [IV]
potency relative to morphine [2]: 5.5 times
